The text below walks through data of patent US10590413B2, “Chiral control” (WAVE LIFE SCIENCES LTD., priority 2012, dated 2020).

Like-named read-outs stand apart in the source and are kept apart here.

Series [1] relates to CpG-induced cytokine secretion. The following applies: RALB/c spleen cells, 24 hr, ELISA, cited from earlier work; for IL-12 secretion: 2 × 10^7 cells/ml, indicated ODN alone; for CpG-S-induced IL-12 secretion: IL-12 secretion induced by addition of CpG ODN 1619 at 30 μg/ml.
The test system of series [2] is human B cell proliferation. The following applies: human spleen cells or PBNC, ODN at 6 μml, 4-7 days, 3H thymidine, cited from earlier work.
In series [3] the test system is NK LU. The note with it: PBMC, phosphorothioate ODN, cited from earlier work.
Series [4] relates to (Ap)9A. The following applies: duplex with (Ap)9A; cited from earlier work.
Series [5] concerns B cell proliferation. The note with it: B cell proliferation induced by a stimulatory CpG motif; oligonucleotide added alone or with inhibitory ODN 1735; cited from earlier work.
The test system of series [6] is ODN-induced cytokine expression. The following applies: ELISA on supernatants from DBA/2 spleen cells, 2 × 10^7 cells/ml, 24 hr, ODN at 30 μg/ml; cited from earlier work.
The test system of series [7] is Mouse Apolipoprotein B/GAPDH mRNA. Kind of series: Apolipoprotein B mRNA assay in transfected mouse primary hepatocytes (Example 88). The series is classed as cell-based. On the procedure: C57BL6 male mice, 7 weeks of age were used to extract and plate mouse primary hepatocytes in 96-well plates (without overlay) (Celsis/Bioreclamation IVT). Transfection of primary hepatocytes was carried out with lipofectin (Life Technologies, cat. No. 18292-037) using the manufacturer's protocol, using 0.5 ul of Lipofectin per 96-plate well. Twelve, 1:3 siRNA duplex dilutions were created starting at 6 uM. 10 ul of 10× oligo was then lipoplexed with a prepared mixture of 9.5 ul of In vitro Gro HI Medium (Celsis Cat. Z99009) serum-free medium and 0.5 ul of Lipofectin per well. After a 10-15 minute incubation, 20 ul of lipoplexed oligo was added to primary hepatocytes in 80 ul of In vitro Gro HI Medium to bring the final volume to 100 ul per well. 24 hours after transfection, cells were lysed.
Total mRNA was purified from cell lysates using MagMAX™-96 Total RNA Isolation Kit (Life Technologies, AM1830); 15 ul of cDNA was synthesized with High Capacity cDNA Reverse Transcription Kit with RNase Inhibitor (Life Technologies, 4374967). Gene expression was evaluated by Real-Time PCR on a Lightcycler 480 (Roche) using a Probes Master Mix (Roche, 04 707 494 001) according to manufacturer's protocol using the following primers: Mouse apolipoprotein B primers:
[Template: (GenBank Accession Number M35186)]
The delta delta Ct method was used to calculate values. […]

In series [8] the test system is NK Lytic Activity. The following applies: cited from earlier work.
Series [9] relates to CD40. The following applies: US 6,218,371 Table 3; cited from earlier work.
Series [10] has as its system T cell proliferation. The note with it: US 6,218,371 Table 3; cited from earlier work.
The subject of series [11] is CD86. The note with it: US 6,218,371 Table 3; cited from earlier work.

Regarding “2037 (DNA TCCATGCCGTTCCTGCCGTT; chemistry not given here) [Oligonucleotide 2037]”, in [1], the IL-12 secretion was 423 pg/mL and the “CpG-S-induced IL-12 secretion” value was 2847 pg/mL.
For the substance “1895 (DNA GCGCGCGCGCGCGCGCGCGC; chemistry not given here) [Oligonucleotide 1895]”, in series [1], the IL-12 secretion is 123 pg/mL and the “CpG-S-induced IL-12 secretion” value is 2719 pg/mL.
“1963 (DNA TCCTTGTCGTTCCTGTCGTT; DNA, all phosphorothioate, methylation of C not given here) [Oligonucleotide 1963]”: the “Stimulation Index, expt. 1” value in series [2] (US 6,214,806 Table 6) and in series [2] (US 6,239,116 Table 12) was 3 in each case. In addition, the “NK LU, expt. 1” value in series [3] (expt. 1 (one donor), US 6,214,806 Table 5) was 3.42 LU; in series [3] (expt. 1, cells alone 0.00, US 6,239,116 Table 11) it was 3.42 LU.
Take “1959 (DNA GCGGCGGGCGGCGCGCGCCC; chemistry not given here) [Oligonucleotide 1959]”: in series [1], the IL-12 secretion was 270 pg/mL and the “CpG-S-induced IL-12 secretion” value was 2539 pg/mL.
Consider (Sp)-(Ups)9U, for which the “Tm value of duplex compared with natural-(Up)9U/(Ap)9A” value in [4] is reported as “did not form a duplex”.
As to “1720 (DNA 1720 (TCCATGAGCTTCCTGATGCT); as printed in the source, key not given here) [Oligonucleotide 1720]”, the “cpm (B cell proliferation)” value in [5] is 601 cpm.
On to “1952 (DNA TCCATGTCGTTCCGCGCGCG; chemistry not given here) [Oligonucleotide 1952]”, for which, in series [6], the “ODN-induced cytokine expression IFN-γ” value was 2135 pg/mL, the “ODN-induced cytokine expression IL-6” value was 559 pg/mL and the “ODN-induced cytokine expression IL-12” value was 1615 pg/mL.
For (Rp)-(Ups)9U, the “Tm value of duplex compared with natural-(Up)9U/(Ap)9A” value in series [4] is “higher Tm value”.
Take “1953 (DNA TCCATGTCGTTCCTGCCGCT; chemistry not given here) [Oligonucleotide 1953]”: in series [6], the “ODN-induced cytokine expression IFN-γ” value was 2000 pg/mL, the “ODN-induced cytokine expression IL-6” value is 557 pg/mL and the “ODN-induced cytokine expression IL-12” value was 1854 pg/mL.
Consider “1896 (DNA CCGGCCGGCCGGCCGGCCGG; chemistry not given here) [Oligonucleotide 1896]”, for which, in [1], the IL-12 secretion is 292 pg/mL and the “CpG-S-induced IL-12 secretion” value was 2740 pg/mL.
For the substance “(All(Rp))-GsTs5mCs5mCs5mCsTsGsAsAsGsAsTsGsTs5mCsAsAsTsGs5mC (DNA GTCCCTGAAGATGTCAATGC; chemistry not fully specified) [ONT-82]”, the IC50 in [7] (relative IC50, bottom 0 and top 100 constrained, read-out: IC50 for Suppression of Mouse Apolipoprotein B/GAPDH mRNA Levels) is 64.4 nM. In addition, the “Hill Slope” value in series [7] (suppression of ApoB/GAPDH mRNA, bottom 0 and top 100 constrained) is listed as −0.3.
For “1841 (DNA TCCATAGCGTTCCTAGCGTT; chemistry not given here) [Oligonucleotide 1841]”, the “NK Lytic Activity (LU)” value in [8] (human PBMC cultured with ODN 6 μg/ml for 24 hr, lysis of 51Cr-labeled K562 cells) is 1.45 LU. Further, in series [8] (human PBMC, ODN 6 μg/ml for 24 hr, lysis of Cr-labeled K562 cells, cells alone 0.01), the “LU (NK lytic activity)” value is recorded as 1.45 LU. Also, the “Stimulation Index, expt. 1” value in [2] (US 6,214,806 Table 6) and in series [2] (US 6,239,116 Table 12) was 3 in each case.
With GM-CSF, the “CD40 (4 Exp.)” value in [9] is given as 2.5. Also, the T cell proliferation in [10] was 13.3. The “CD86 (5 Exp)” value in series [11] was 1.9.
